From article PMC12142043, “Cell-based high-content approach for SARS-CoV-2 neutralization identifies unique monoclonal antibodies and PI3K pathway inhibitors” (Frontiers in Cell and Developmental Biology, 2025)
Where a name gives a salt, the structure may show the parent alone. Read-outs that look alike come from different tables or passages of the source.

System: SARS-CoV-2 (USA-WA1/2020) in Calu-3 cells
Format: cell-based
[1] = high dose (10 µM), Calu-3, 48 h
[2] = low dose (100 nM), Calu-3, 48 h

| SMILES | dsRNA signal, AU High [1] | dsRNA signal, AU Low [2] | Reduction of infection in representative images (Figure 4A) | dsRNA signal, AU High | dsRNA signal, AU Low |
| --- | --- | --- | --- | --- | --- |
| Cn1cc(-c2ccc(F)c(C(F)(F)F)c2)nc1C1CCN(c2ncnc3[nH]ncc23)CC1 [LY2584702] | 5638.3 AU | 15579.4 AU |  |  |  |
| Cc1cnc(NC(=O)Nc2cc(Br)c(C)cc2OC[C@@H]2CNCCO2)cn1 [LY2603618] | 13995.2 AU | 6197.3 AU |  |  |  |
| CCN1CCN(Cc2ccc(Nc3ncc(F)c(-c4cc(F)c5nc(C)n(C(C)C)c5c4)n3)nc2)CC1 [LY2835219 free base] | 59180.8 AU | 26611.9 AU |  |  |  |
| C[C@@H](Oc1ccc2[nH]nc(/C=C/c3cnn(CCO)c3)c2c1)c1c(Cl)cncc1Cl [LY2874455] | 11432.5 AU | 3320.6 AU |  |  |  |
| Cn1nccc1Nc1nccc(-c2cc3c(s2)C(C)(C)N(CCN2CCOCC2)C3=O)n1 [LY3214996] | 4594.5 AU | 22927.9 AU |  |  |  |
| O=c1cc(N2CCOCC2)oc2c(-c3ccccc3)cccc12 [LY 294002] | 11164.3 AU | 43579.3 AU |  |  |  |
| COc1cc2nccc(Oc3ccc(NC(=O)NC4CC4)c(Cl)c3)c2cc1C(N)=O [Lenvatinib (E7080)] | 26964.0 AU | 55504.0 AU |  |  |  |
| CCN(CC)CC(=O)Nc1c(C)cccc1C [Lidocaine] | 26152.6 AU | 999.3 AU |  |  |  |
| C[C@@H]1O[C@@H](OC[C@H]2O[C@@H](Oc3cc(O)c4c(=O)cc(-c5ccc(O)cc5)oc4c3)[C@H](O[C@@H]3O[C@@H](C)[C@H](O)[C@@H](O)[C@H]3O)[C@@H](O)[C@@H]2O)[C@H](O)[C@H](O)[C@H]1O [Ligustroflavone] | 4049.2 AU | 6040.1 AU |  |  |  |
| Cc1c(F)cc(C(=O)NC2CC2)cc1-c1ccc(C(=O)NCC(C)(C)C)cn1 [Losmapimod, reference compound] |  |  | poor activity |  |  |
| Cn1cnc2c(F)c(Nc3ccc(Br)cc3F)c(C(=O)NOCCO)cc21 [MEK162 (ARRY-162, ARRY-438162)] | 32104.0 AU | 54835.5 AU |  |  |  |
| COCCNCc1ccc(-c2cc3nccc(Oc4ccc(NC(=S)NC(=O)Cc5ccc(F)cc5)cc4F)c3s2)nc1 [MGCD-265] | 4249.4 AU | 42710.5 AU |  |  |  |
| O=[N+]([O-])c1ccc(Nc2nc(N3CCOCC3)nc(N3CCOCC3)n2)cc1 [MHY1485] | 4962.4 AU | 35655.5 AU |  |  |  |
| CN(C[C@@H]1COCCO1)S(=O)(=O)Nc1ccc2ccc3ncc(-c4cnn(C)c4)cc3c(=O)c2c1 [MK-2461] | 19211.6 AU | 2226.3 AU |  |  |  |
| O=C(O)[C@]1(Cc2cccc(Nc3nccs3)n2)CC[C@@H](Oc2cccc(Cl)c2F)CC1 [MK-5108 (VX-689)] | 3258.6 AU | 34308.8 AU |  |  |  |
| COc1ccc(-c2cnc3c(-c4cccc5ncccc45)cnn3c2)cc1 [ML347] | 0.0 AU | 58224.3 AU |  |  |  |
| Cl.O=S(=O)(c1cccc2c(I)cccc12)N1CCCNCC1 [ML-7 hydrochloride] | 19324.6 AU | 18346.9 AU |  |  |  |
| COc1c(Cl)cc2c([nH]c3cnccc32)c1NC(=O)c1cccnc1C [MLN120B] | 3021.2 AU | 0.0 AU |  |  |  |
| O=C(O)c1ccc(Nc2ncc3c(n2)-c2ccc(Cl)cc2C(c2c(F)cccc2F)=NC3)cc1 [MLN8054] | 4632.4 AU | 9929.7 AU |  |  |  |
| COc1cc(Nc2ncc3c(n2)-c2ccc(Cl)cc2C(c2c(F)cccc2OC)=NC3)ccc1C(=O)O [MLN8237 (Alisertib)] | 9976.5 AU | 32491.8 AU |  |  |  |
| O=[N+]([O-])/C=C/c1ccc2c(c1)OCO2 [MNS] | 1958.5 AU | 51870.8 AU |  |  |  |
| CCc1ccc(C(=O)COc2ccc(CC3SC(=O)NC3=O)cc2)nc1 (stereo not shown) [MSDC-0160] | 16528.8 AU | 15455.5 AU |  |  |  |
| Nc1ccc(O)c(C(=O)O)c1 [Mesalamine] | 17187.6 AU | 2129.6 AU |  |  |  |
| CN(C)C(=N)N=C(N)N [Metformin HCl] | 10385.6 AU | 10840.1 AU |  |  |  |
| Cc1cc(=O)[nH]c(=S)[nH]1 [Methylthiouracil] | 61524.3 AU | 55636.1 AU |  |  |  |

| SMILES | dsRNA signal, AU High [1] | dsRNA signal, AU Low [2] | Reduction of infection in representative images (Figure 4A) | dsRNA signal, AU High | dsRNA signal, AU Low |
| --- | --- | --- | --- | --- | --- |
| CCCCCCCCCCCCCCCCOP(=O)([O-])OCC[N+](C)(C)C [Miltefosine] | 27276.6 AU | 36330.6 AU |  |  |  |
| O=C1c2c(O)ccc(O)c2C(=O)c2c(NCCNCCO)ccc(NCCNCCO)c21 [Mitoxantrone HCl] | 48235.0 AU | 23848.1 AU |  |  |  |
| COC(=O)c1c2c(c3ccccc3c1O)OC(C)(C)C=C2 [Mollugin] | 394.8 AU | 5157.1 AU |  |  |  |
| COc1cc(N2CCC(O)CC2)ccc1Nc1cc(Nc2ccccc2S(=O)(=O)C(C)C)c2cc[nH]c2n1 [Mps1-IN-1] | 7290.6 AU | 34349.9 AU |  |  |  |
| FC(F)(F)c1ccc(/C=C/c2nc(COc3ccc(CCCCn4ccnn4)cc3)co2)cc1 [Mubritinib (TAK 165)] |  |  |  | 19342.6 | 48533.2 |
| CC(=O)NCCc1c[nH]c2ccc(O)cc12 [N-Acetylserotonin] | 219.3 AU | 53222.8 AU |  |  |  |
| O=[N+]([O-])c1ccc(Sc2cccc[n+]2[O-])c2nonc12 [NSC228155] | 18547.9 AU | 54998.4 AU |  |  |  |
| CCN(CC)CCCC(C)Nc1nc(C)cc(Nc2ccc3nc(C)cc(N)c3c2)n1 (stereo not shown) [NSC 23766] | 10192.1 AU | 15408.3 AU |  |  |  |
| Oc1cc(CNC(=S)/C=C/c2cc(O)c(O)c(Br)c2)cc(O)c1O [NT157] | 7372.8 AU | 11852.6 AU |  |  |  |
| O=C(Nc1nc2ccc(NC(=O)C34CC5CC(CC(C5)C3)C4)cc2s1)c1ccccc1 [NVP 231] | 1973.6 AU | 14037.2 AU |  |  |  |
| Nc1ncnc2c1c(-c1cccc(OCc3ccccc3)c1)cn2[C@H]1C[C@@H](CN2CCC2)C1 [NVP-AEW541] | 1274.0 AU | 19640.6 AU |  |  |  |
| Cl.Nc1cc(C(F)(F)F)c(-c2cc(N3CCOCC3)nc(N3CCOCC3)n2)cn1 [NVP-BKM120 Hydrochloride] | 0.0 AU | 56514.5 AU |  |  |  |
| Fc1cc(-c2cccc3ncc(-c4cnn(C5CCNCC5)c4)nc23)cc(F)c1CN1CCOCC1 [NVP-BSK805 2HCl] | 1810.2 AU | 2038.5 AU |  |  |  |
| Cn1cc(-c2ccc3ncc(Cc4ccc5ncccc5c4)n3n2)cn1 [NVP-BVU972] | 9035.4 AU | 52705.1 AU |  |  |  |
| CS(=O)(=O)N1CCC(NC(=O)c2[nH]ncc2NC(=O)c2c(Cl)cccc2Cl)CC1 [NVP-LCQ195] | 6040.0 AU | 35350.1 AU |  |  |  |
| CN1C(=O)C(Cc2c[nH]c3ccccc23)NC1=S (stereo not shown) [Necrostatin-1] | 12590.5 AU | 10276.4 AU |  |  |  |
| CCOc1cc2ncc(C#N)c(Nc3ccc(OCc4ccccn4)c(Cl)c3)c2cc1NC(=O)/C=C/CN(C)C [Neratinib (HKI-272)] | 1101.0 AU | 11881.7 AU |  |  |  |
| Cc1cn(-c2cc(NC(=O)c3ccc(C)c(Nc4nccc(-c5cccnc5)n4)c3)cc(C(F)(F)F)c2)cn1.Cl.O [Nilotinib monohydrochloride monohydrate] | 2759.7 AU | 14574.2 AU |  |  |  |
| Cc1cn(-c2cc(NC(=O)c3ccc(C)c(Nc4nccc(-c5cccnc5)n4)c3)cc(C(F)(F)F)c2)cn1 [Nilotinib(AMN-107)] | 28653.4 AU | 33622.0 AU |  |  |  |
| Nc1nc(N)c(N=O)c(OCC2CCCCC2)n1 [Nu 6027] | 2596.9 AU | 10731.2 AU |  |  |  |
| NCC(=O)Nc1ccc(-n2nc(C(F)(F)F)cc2-c2ccc3c(ccc4ccccc43)c2)cc1 [OSU-03012 (AR-12)] | 17565.3 AU | 17813.3 AU |  |  |  |
| CC1(C)OC(=O)C=C[C@]2(C)[C@H]3CC[C@@]4(C)[C@H](c5ccoc5)OC(=O)[C@H]5O[C@]54[C@]3(C)C(=O)C[C@@H]12 [Obacunone] | 22534.9 AU | 63087.7 AU |  |  |  |
| C=C1C(=O)[C@]23[C@H](O)[C@H]1CC[C@H]2[C@@]12CO[C@]3(O)[C@@H](O)[C@@H]1C(C)(C)CC[C@@H]2O [Oridonin] | 6061.2 AU | 25375.1 AU |  |  |  |
| COC(=O)Nc1nc2ccc([S+]([O-])c3ccccc3)cc2[nH]1 (stereo not shown) [Oxfendazole] | 20012.9 AU | 47370.5 AU |  |  |  |
